A short description of data set [1]: Verification of the arrival of 2-pentanone in cerebrospinal fluid (HPLC-MS of blood and cerebrospinal fluid after inhalation). In kind it is in vivo, rats. As for the experimental part: The specific method for detecting the arrival of 2-pentanone in cerebrospinal fluid in this test example included the following: rats were given 2-pentanone for 3 min, then blood and cerebrospinal fluid were drawn, immediately sealed and centrifuged at high speed to pellet red blood cells. The obtained cerebrospinal fluid and blood samples were subjected to HPLC-MS detection. Prior to detection, 100 μL of samples was taken and added with 400 μL of acetonitrile. The protein was separated by vortex and centrifuged at 14000 rpm for 10 min, and 100 μL of supernatant was used for HPLC-MS detection. […] It was confirmed by high performance liquid chromatography-mass spectrometry (HPLC-MS) that 2-pentanone could reach cerebrospinal fluid through blood rapidly (3 min) after inhaled by animals, and the concentration in cerebrospinal fluid decreased rapidly within 3-5 min after the inhalation was stopped.

The target in data set [2] is T1, specific receptor Or35a and the specific receptor Or83b (Drosophila melanogaster, UniProt Q9V3Q2+Q9VNB5).
T1 construct: P2A peptide (self-cleaving; remnant stays on the C-terminus of Or35a) (C); remnant stays on the C-terminus of Or83b) (C); expressed in transfected cells; acute brain slices
T1 sequence (Q9V3Q2 1-409): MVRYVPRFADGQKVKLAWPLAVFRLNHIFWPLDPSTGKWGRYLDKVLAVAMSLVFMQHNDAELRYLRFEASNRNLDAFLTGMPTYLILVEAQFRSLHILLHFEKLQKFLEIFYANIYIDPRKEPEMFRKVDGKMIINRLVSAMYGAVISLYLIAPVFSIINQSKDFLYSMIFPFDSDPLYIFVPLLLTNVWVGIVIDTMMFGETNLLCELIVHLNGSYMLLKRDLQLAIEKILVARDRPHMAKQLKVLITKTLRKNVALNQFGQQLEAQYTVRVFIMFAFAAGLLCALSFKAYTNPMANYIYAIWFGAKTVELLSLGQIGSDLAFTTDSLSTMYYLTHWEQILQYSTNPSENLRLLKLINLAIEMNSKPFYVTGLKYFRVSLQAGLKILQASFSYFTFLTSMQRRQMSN
T1 sequence (Q9VNB5 1-486): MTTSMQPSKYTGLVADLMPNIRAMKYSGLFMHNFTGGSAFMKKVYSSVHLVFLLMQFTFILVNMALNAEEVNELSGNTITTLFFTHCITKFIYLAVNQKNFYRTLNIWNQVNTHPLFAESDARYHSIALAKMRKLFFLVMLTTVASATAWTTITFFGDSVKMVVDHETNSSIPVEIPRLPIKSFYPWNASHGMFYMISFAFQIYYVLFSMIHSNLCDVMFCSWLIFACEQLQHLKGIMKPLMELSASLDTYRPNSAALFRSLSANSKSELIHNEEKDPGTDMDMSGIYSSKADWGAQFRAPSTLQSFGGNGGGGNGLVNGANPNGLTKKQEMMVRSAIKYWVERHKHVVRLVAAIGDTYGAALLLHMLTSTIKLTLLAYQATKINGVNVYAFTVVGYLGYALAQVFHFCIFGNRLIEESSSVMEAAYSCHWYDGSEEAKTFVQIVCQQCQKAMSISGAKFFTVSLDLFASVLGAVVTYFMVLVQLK
Briefly: Calcium imaging experiment in mouse brain slices expressing the specific receptor of 2-pentanone. In kind it is cell-based. Particulars: addition of 2-pentanone; 150 μm brain slices of C57 mice injected with Or35a/Or83b overexpression virus and calcium imaging virus; confocal microscope; FIG. 4A. As for the experimental part: 1. Calcium imaging experiment: Adult C57 mice were anesthetized, fixed on a stereotaxic apparatus, and operated to expose the brain surface of the mice (1.5 mm behind the bregma, 1 mm aside, and injection depth of 2 mm). The overexpression virus (1 μl) constructed in Example 1 and the calcium imaging virus (0.5 μl) were simultaneously injected into the mouse brain using a microinjector. After 2 weeks of feeding, the brains of mice were removed. The brain tissues near the injection site were cut into 150 μm tissue slices using a vibrating microtome and placed in artificial cerebrospinal fluid with a mixture of 5% CO2 and 95% O2, and calcium imaging experiment was performed using a confocal microscope.

In data set [3] the target is T1, specific receptor Or35a and the specific receptor Or83b. Briefly: Patch clamp experiment (whole-cell recordings) in neurons of mouse brain slices expressing the specific receptor of 2-pentanone. In kind it is cell-based. Particulars: addition of 2-pentanone, 300 μm brain slices of C57 mice injected with Or35a/Or83b overexpression virus, FIG. 4B. As for the experimental part:
2. Patch clamp experiment: Adult C57 mice were anesthetized, fixed on a stereotaxic apparatus, and operated to expose the brain surface of the mice (1.5 mm behind the bregma, 1 mm aside, and injection depth of 2 mm). The overexpression virus (1 μl) constructed in Example 1 was injected into the mouse brain using a microinjector. After 2 weeks of feeding, the brains of mice were removed. The brain tissues at and near the injection site were cut into 300 μm tissue slices using a vibrating microtome and placed in artificial cerebrospinal fluid with a mixture of 5% CO2 and 95% 02, and after 1 h of incubation, the patch clamp experiment was performed. Using an Axon 700B amplifier, under infrared visualization, neurons with smooth surfaces and clear contours were selected for sealing, and whole-cell recordings were performed.
Background: Patch clamp records ionic current or voltage across a cell membrane.

In the case of `CCCC(C)=O` [2-pentanone], in data set [1] (rats given 2-pentanone for 3 min by inhalation, HPLC-MS of cerebrospinal fluid), the “time to reach cerebrospinal fluid through blood after inhalation” value came to 3 min. In addition, the “time within which the concentration in cerebrospinal fluid decreased rapidly after the inhalation was stopped” value in data set [1] (rats, after inhalation was stopped, HPLC-MS) was in the range of 3 to 5 min. The “intracellular calcium ion concentration” value in data set [2] was “significantly increased”. For the same molecule, the neuronal firing rate entry in data set [3] is recorded as “significantly increased”.
